Laboratory results as given in the NIST ThermoML archive (doi:10.1021/acs.jced.5b00105).
Numbers after ± are expanded uncertainties.

Experiment: xn = mol fraction of the nth substance listed
Conditions: 100 kPa, Liquid; for mass density: Vibrating tube method; for viscosity: Concentric cylinders viscometry

CCCCC1CCCCC1 [butylcyclohexane] + CC(C)CC(C)(C)C
Conditions	mass density [kg/m3]	viscosity [mPa·s]
308.15 K, x1 = 0.0999	691.83 ± 0.19	–
308.15 K, x1 = 0.2002	703.8 ± 0.18	–
308.15 K, x1 = 0.3001	715.4 ± 0.18	–
308.15 K, x1 = 0.3996	726.61 ± 0.18	–
308.15 K, x1 = 0.5005	737.66 ± 0.17	–
308.15 K, x1 = 0.6003	748.29 ± 0.17	–
308.15 K, x1 = 0.6994	758.58 ± 0.16	–
308.15 K, x1 = 0.8	768.72 ± 0.16	–
308.15 K, x1 = 0.9001	778.55 ± 0.16	–
308.15 K, x1 = 1	788.12 ± 0.15	–
313.15 K, x1 = 0.0999	687.7 ± 0.19	0.464 ± 0.074
313.15 K, x1 = 0.2002	699.73 ± 0.19	0.502 ± 0.08
313.15 K, x1 = 0.3001	711.37 ± 0.18	0.544 ± 0.087
313.15 K, x1 = 0.3996	722.64 ± 0.18	0.588 ± 0.094
313.15 K, x1 = 0.5005	733.72 ± 0.17	0.638 ± 0.1
313.15 K, x1 = 0.6003	744.39 ± 0.17	0.691 ± 0.11
313.15 K, x1 = 0.6994	754.72 ± 0.17	0.749 ± 0.12
313.15 K, x1 = 0.8	764.89 ± 0.16	0.814 ± 0.13
313.15 K, x1 = 0.9001	774.76 ± 0.16	0.883 ± 0.14
313.15 K, x1 = 1	784.35 ± 0.15	0.961 ± 0.15
318.15 K, x1 = 0.0999	683.64 ± 0.19	0.446 ± 0.072
318.15 K, x1 = 0.2002	695.56 ± 0.19	0.482 ± 0.077
318.15 K, x1 = 0.3001	707.24 ± 0.18	0.519 ± 0.083
318.15 K, x1 = 0.3996	718.6 ± 0.18	0.561 ± 0.09
318.15 K, x1 = 0.5005	729.73 ± 0.17	0.607 ± 0.097
318.15 K, x1 = 0.6003	740.43 ± 0.17	0.654 ± 0.11
318.15 K, x1 = 0.6994	750.82 ± 0.17	0.708 ± 0.11
318.15 K, x1 = 0.8	760.98 ± 0.16	0.765 ± 0.12
318.15 K, x1 = 0.9001	770.84 ± 0.16	0.829 ± 0.13
318.15 K, x1 = 1	780.49 ± 0.15	0.9 ± 0.14
323.15 K, x1 = 0.0999	679.45 ± 0.19	0.427 ± 0.068
323.15 K, x1 = 0.2002	691.42 ± 0.19	0.46 ± 0.074
323.15 K, x1 = 0.3001	703.16 ± 0.18	0.496 ± 0.08
323.15 K, x1 = 0.3996	714.56 ± 0.18	0.534 ± 0.086
323.15 K, x1 = 0.5005	725.73 ± 0.18	0.575 ± 0.092
323.15 K, x1 = 0.6003	736.49 ± 0.17	0.62 ± 0.099
323.15 K, x1 = 0.6994	746.95 ± 0.17	0.668 ± 0.11
323.15 K, x1 = 0.8	757.16 ± 0.16	0.721 ± 0.12
323.15 K, x1 = 0.9001	767.06 ± 0.16	0.779 ± 0.12
323.15 K, x1 = 1	776.7 ± 0.16	0.844 ± 0.14
333.15 K, x1 = 0.0999	670.99 ± 0.19	0.396 ± 0.064
333.15 K, x1 = 0.2002	683.12 ± 0.19	0.424 ± 0.068
333.15 K, x1 = 0.3001	694.98 ± 0.19	0.454 ± 0.073
333.15 K, x1 = 0.3996	706.46 ± 0.18	0.487 ± 0.078
333.15 K, x1 = 0.5005	717.7 ± 0.18	0.522 ± 0.084
333.15 K, x1 = 0.6003	728.53 ± 0.17	0.56 ± 0.09
333.15 K, x1 = 0.6994	739.06 ± 0.17	0.601 ± 0.096
333.15 K, x1 = 0.8	749.37 ± 0.17	0.646 ± 0.1
333.15 K, x1 = 0.9001	759.38 ± 0.16	0.695 ± 0.11
333.15 K, x1 = 1	769.09 ± 0.16	0.749 ± 0.12
343.15 K, x1 = 0.0999	662.4 ± 0.2	0.369 ± 0.059
343.15 K, x1 = 0.2002	674.66 ± 0.19	0.394 ± 0.063
343.15 K, x1 = 0.3001	686.64 ± 0.19	0.42 ± 0.067
343.15 K, x1 = 0.3996	698.25 ± 0.18	0.448 ± 0.072
343.15 K, x1 = 0.5005	709.63 ± 0.18	0.48 ± 0.077
343.15 K, x1 = 0.6003	720.57 ± 0.18	0.51 ± 0.082
343.15 K, x1 = 0.6994	731.21 ± 0.17	0.545 ± 0.087
343.15 K, x1 = 0.8	741.57 ± 0.17	0.584 ± 0.094
343.15 K, x1 = 0.9001	751.62 ± 0.16	0.626 ± 0.1
343.15 K, x1 = 1	761.43 ± 0.16	0.671 ± 0.11
